Columns and labels:
Assay type in all cases: in vivo
[1] = test system: winter barley (Hordeum vulgare); assay: Test D pre/postemergence; details: scale 0 to 100 (100 = complete control)
Method in brief: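 Visual injury score, 0–100 (0 = no effect, 100 = complete control), vs untreated controls after 15–25 d in controlled environment. Pre- and postemergence treatments run in parallel; postemergence at 1–4 leaf, 2–18 cm. Compounds in non-phytotoxic solvent with surfactant.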

[2] = test system: Canada horseweed (Conyza canadensis); assay: Test G pre/postemergence
Method in brief: (§1)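 Pre- and postemergence greenhouse test; compound in non-phytotoxic solvent/surfactant mix. Post timing: 2–18 cm plants, 1- to 4-leaf. Visual rating vs controls at 12–21 d, 0 (no effect) to 100 (complete control).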

[3] = test system: Russian thistle (Salsola kali); assay: Test G pre/postemergence
Method in brief: as §1

[4] = test system: Surinam grass (Brachiaria decumbens); assay: Test G pre/postemergence
Method in brief: as §1

[5] = test system: bermudagrass (Cynodon dactylon); assay: Test G pre/postemergence
Method in brief: as §1

[6] = test system: common groundsel (Senecio vulgaris); assay: Test G pre/postemergence
Method in brief: as §1

[7] = test system: common purslane (Portulaca oleracea); assay: Test G pre/postemergence
Method in brief: as §1

[8] = test system: common ragweed (Ambrosia elatior); assay: Test G pre/postemergence
Method in brief: as §1

[9] = test system: dallisgrass (Paspalum dilatatum); assay: Test G pre/postemergence
Method in brief: as §1

[10] = test system: guineagrass (Panicum maximum); assay: Test G pre/postemergence
Method in brief: as §1

[11] = test system: itchgrass (Rottboellia cochinchinensis); assay: Test G pre/postemergence
Method in brief: as §1

[12] = test system: kochia (Kochia scoparia); assay: Test G pre/postemergence
Method in brief: as §1

[13] = Postemergence, 250 g ai/ha, scale 0 to 100
[14] = Postemergence, 500 g ai/ha, scale 0 to 100
[15] = Postemergence, 125 g ai/ha, scale 0 to 100
[16] = Postemergence, 375 g ai/ha, scale 0 to 100
[17] = Preemergence, 62 g ai/ha, scale 0-100
[18] = Preemergence, 125 g ai/ha, scale 0-100
[19] = Preemergence, 250 g ai/ha, scale 0-100
[20] = Preemergence, 500 g ai/ha, scale 0 to 100
[21] = Preemergence, 375 g ai/ha, scale 0 to 100
[22] = Postemergence, 62 g ai/ha, scale 0 to 100
[23] = Preemergence, 500 g ai/ha, scale 0-100

CCOC(=O)Cc1nc(C2CC2)nc(N=CN(C)C)c1Br [Compound 33]
Plant response rating, Barley ([1]; Postemergence, 62 g ai/ha): 45
Plant response rating, Barley ([1]; Postemergence, 125 g ai/ha): 45
Plant response rating, Barley ([1]; Postemergence, 250 g ai/ha): 45
Plant response rating, Barley ([1]; Preemergence, 62 g ai/ha): 10
Plant response rating, Barley ([1]; Preemergence, 125 g ai/ha): 35
Plant response rating, Barley ([1]; Preemergence, 250 g ai/ha): 45

COC(=O)c1nc(C2CC2C)nc(N)c1Br (centres unmarked) [Compound 28]
Plant response rating, Barley ([1]; Postemergence, 62 g ai/ha): 20
Plant response rating, Barley ([1]; Postemergence, 125 g ai/ha): 40
Plant response rating, Barley ([1]; Postemergence, 250 g ai/ha): 40
Plant response rating, Barley ([1]; Preemergence, 62 g ai/ha): 10
Plant response rating, Barley ([1]; Preemergence, 125 g ai/ha): 25
Plant response rating, Barley ([1]; Preemergence, 250 g ai/ha): 45

COC(=O)c1nc(C2CC2)nc(NO)c1Br [Compound 35]
Plant response rating, Barley ([1]; Postemergence, 62 g ai/ha): 65
Plant response rating, Barley ([1]; Postemergence, 125 g ai/ha): 65
Plant response rating, Barley ([1]; Postemergence, 250 g ai/ha): 70
Plant response rating, Barley ([1]; Preemergence, 62 g ai/ha): 40
Plant response rating, Barley ([1]; Preemergence, 125 g ai/ha): 45
Plant response rating, Barley ([1]; Preemergence, 250 g ai/ha): 45

CCOC(=O)c1nc(C2CC2)nc(N)c1Br [Compound 1, ethyl 6-amino-5-bromo-2-cyclopropyl-4-pyrimidinecarboxylate]
Plant response rating, Horseweed [2, 13]: 100
Plant response rating, Horseweed [2, 14]: 100
Plant response rating, Horseweed [2, 15]: 70
Plant response rating, Horseweed [2, 16]: 100
Plant response rating, Horseweed [2, 17]: 95
Plant response rating, Horseweed [2, 18]: 95
Plant response rating, Horseweed [2, 19]: 100
Plant response rating, Horseweed [2, 20]: 100
Plant response rating, Horseweed [2, 21]: 100
Plant response rating, Russian Thistle [3, 13]: 100
Plant response rating, Russian Thistle [3, 22]: 100
Plant response rating, Russian Thistle [3, 15]: 100
Plant response rating, Russian Thistle [3, 16]: 100
Plant response rating, Russian Thistle [3, 17]: 100
Plant response rating, Russian Thistle [3, 18]: 100
Plant response rating, Russian Thistle [3, 19]: 100
Plant response rating, Russian Thistle [3, 23]: 100
Plant response rating, Russian Thistle [3, 20]: 100
Plant response rating, Surinam Grass [4, 13]: 85
Plant response rating, Surinam Grass [4, 14]: 90
Plant response rating, Surinam Grass [4, 22]: 30
Plant response rating, Surinam Grass [4, 15]: 60
Plant response rating, Surinam Grass [4, 16]: 90
Plant response rating, Surinam Grass [4, 17]: 95
Plant response rating, Surinam Grass [4, 18]: 95
Plant response rating, Surinam Grass [4, 19]: 95
Plant response rating, Surinam Grass [4, 23]: 95
Plant response rating, Surinam Grass [4, 20]: 100
Plant response rating, Bermudagrass [5, 13]: 40
Plant response rating, Bermudagrass [5, 14]: 50
Plant response rating, Bermudagrass [5, 22]: 25
Plant response rating, Bermudagrass [5, 15]: 25
Plant response rating, Bermudagrass [5, 16]: 40
Plant response rating, Bermudagrass [5, 17]: 10
Plant response rating, Bermudagrass [5, 18]: 20
Plant response rating, Bermudagrass [5, 19]: 30
Plant response rating, Bermudagrass [5, 20]: 70
Plant response rating, Bermudagrass [5, 21]: 70
Plant response rating, Groundsel [6, 13]: 95
Plant response rating, Groundsel [6, 14]: 100
Plant response rating, Groundsel [6, 22]: 60
Plant response rating, Groundsel [6, 15]: 95
Plant response rating, Groundsel [6, 16]: 100
Plant response rating, Groundsel [6, 17]: 60
Plant response rating, Groundsel [6, 18]: 100
Plant response rating, Groundsel [6, 19]: 100
Plant response rating, Groundsel [6, 20]: 100
Plant response rating, Groundsel [6, 21]: 100
Plant response rating, Purslane [7, 13]: 100
Plant response rating, Purslane [7, 14]: 100
Plant response rating, Purslane [7, 22]: 80
Plant response rating, Purslane [7, 15]: 100
Plant response rating, Purslane [7, 16]: 100
Plant response rating, Purslane [7, 17]: 10
Plant response rating, Purslane [7, 18]: 60
Plant response rating, Purslane [7, 19]: 95
Plant response rating, Purslane [7, 23]: 100
Plant response rating, Purslane [7, 20]: 100
Plant response rating, Ragweed [8, 13]: 95
Plant response rating, Ragweed [8, 14]: 100
Plant response rating, Ragweed [8, 22]: 75
Plant response rating, Ragweed [8, 15]: 95
Plant response rating, Ragweed [8, 16]: 100
Plant response rating, Ragweed [8, 17]: 50
Plant response rating, Ragweed [8, 18]: 95
Plant response rating, Ragweed [8, 19]: 100
Plant response rating, Ragweed [8, 23]: 100
Plant response rating, Ragweed [8, 20]: 100
Plant response rating, Dallisgrass [9, 13]: 30
Plant response rating, Dallisgrass [9, 14]: 30
Plant response rating, Dallisgrass [9, 22]: 10
Plant response rating, Dallisgrass [9, 15]: 20
Plant response rating, Dallisgrass [9, 16]: 30
Plant response rating, Dallisgrass [9, 17]: 0
Plant response rating, Dallisgrass [9, 18]: 10
Plant response rating, Dallisgrass [9, 19]: 50
Plant response rating, Dallisgrass [9, 20]: 95
Plant response rating, Dallisgrass [9, 21]: 95
Plant response rating, Guineagrass [10, 13]: 95
Plant response rating, Guineagrass [10, 14]: 95
Plant response rating, Guineagrass [10, 22]: 60
Plant response rating, Guineagrass [10, 15]: 70
Plant response rating, Guineagrass [10, 17]: 70
Plant response rating, Guineagrass [10, 18]: 70
Plant response rating, Guineagrass [10, 19]: 85
Plant response rating, Guineagrass [10, 20]: 100
Plant response rating, Guineagrass [10, 21]: 100
Plant response rating, Itchgrass [11, 13]: 60
Plant response rating, Itchgrass [11, 14]: 70
Plant response rating, Itchgrass [11, 22]: 20
Plant response rating, Itchgrass [11, 15]: 40
Plant response rating, Itchgrass [11, 16]: 60
Plant response rating, Itchgrass [11, 17]: 10
Plant response rating, Itchgrass [11, 18]: 30
Plant response rating, Itchgrass [11, 19]: 80
Plant response rating, Itchgrass [11, 23]: 85
Plant response rating, Itchgrass [11, 20]: 90
Plant response rating, Kochia [12, 16]: 95
Plant response rating, Kochia [12, 17]: 100
Plant response rating, Kochia [12, 18]: 100
Plant response rating, Kochia [12, 19]: 100
Plant response rating, Kochia [12, 23]: 100
Plant response rating, Kochia [12, 20]: 100

Nc1nc(C2CC2)nc(C=O)c1Br [Compound 26]
Plant response rating, Barley ([1]; Postemergence, 125 g ai/ha): 45
Plant response rating, Barley ([1]; Postemergence, 250 g ai/ha): 50
Plant response rating, Barley ([1]; Preemergence, 125 g ai/ha): 25
Plant response rating, Barley ([1]; Preemergence, 250 g ai/ha): 35
